In patent EP4491190A1, “SMALL PROTEINS FOR USE AS SENOLYTIC AND SENOMORPHIC AGENTS” (Fundación Imdea Alimentación, priority 2023, dated 2025):

Columns and labels:
Format in all cases: cell-based, human
[1] = system: SKMel-103 cells; test: MTT cell viability assay in proliferative and palbociclib-induced senescent SKMel-103 cells
Method: (§1) Cells were plated in 96 well plates at a density of 3×10^3-8×10^3 cells/well (proliferative) or 8×10^3-10×10^3 cells/well (senescent). An MTT assay (Sigma-Aldrich, Merck KGaA, Darmstadt, Germany) was used to measure cell viability after 48-96 h of treatments. Briefly, MTT was diluted in 0.1 M phosphate buffered saline (PBS) and added to cells grown in 96-well plates at a final concentration of 0.5 mg/ml. After incubation for 2-4 hr at 37°C with MTT, the culture medium was removed. The precipitated formazan was solubilized with dimethyl sulfoxide (DMSO). Absorbance was measured at 570 nm using a microplate reader (Victor Nivo; Perkin Elmer, Hamburg, Germany). For these assays, the effects of vehicle or treatments were expressed as the % of change of the non-treated cells.
Therefore, the MTT assay was used to measure cell viability in proliferative and senescent cells. The model of cellular senescence induced by cyclin-dependent kinases (CDK) inhibition with Palbociclib (Baughn, L. B., et al. A Novel Orally Active Small Molecule Potently Induces G1 Arrest in Primary Myeloma Cells and Prevents Tumor Growth by Specific Inhibition of Cyclin-Dependent Kinase 4/6. Cancer Research (2006), 66(15), 7661-7667; Fry, D. W. et al. Specific inhibition of cyclin-dependent kinase 4/6 by PD 0332991 and associated antitumor activity in human tumor xenografts. Molecular Cancer Therapeutics, (2004) 3(11), 1427-1438) was used. Palbociclib is a CDK inhibitor, which promotes many markers of cellular senescence (Klein, M. E., et al. CDK4/6 Inhibitors: The Mechanism of Action May Not Be as Simple as Once Thought. Cancer Cell, (2018) 34(1), 9-20; Llanos, S., et al. Lysosomal trapping of palbociclib and its functional implications. Oncogene, (2019) 38(20), 3886-3902), including an enlarged and flattened cell shape and an enhanced senescence-associated β-galactosidase (SA-β-gal) activity (Figure 1A). Treatment with increasing concentrations of Tvs1 (0.1 nM to 3 µM) led to a dose-dependent reduction in viability of SKMel103 cells (Figure 1B). […]

[2] = system: senescent HGPS skin fibroblast; test: Senolysis in HGPS skin fibroblasts (viability, β-galactosidase staining); settings: 48h
Method: All human cancer cell lines and the non-transformed fibroblast lines were maintained in a humidified incubator at 37°C and 5% CO2 and used between passages 4 and 15. All lines were frequently checked and ensured to be mycoplasma free. Cells were split twice a week and before archiving an 90% confluency. SKMel103, SH-SY5Y, Huh7, A549, U251 were donated from collaborators or obtained from the Translational Venomics' stock. Primary lung fibroblasts (PCS201013) and primary dermal fibroblasts (PCS201012) were purchased from ATCC (Manassas, VA, USA). Skin fibroblasts from Hutchinson-Gilford progeria syndrome donors were purchase from the Progeria Research Foundation (HGADFN 127, 143, 167, 178) or Coriell Institute (AG01972E, AG06917K and AG11513F). The cells were maintained following the recommendations of the cell banks.
Cells were plated in 96 well plates at a density of 3×10^3-8×10^3 cells/well (proliferative) or 8×10^3-10×10^3 cells/well (senescent). An MTT assay (Sigma-Aldrich, Merck KGaA, Darmstadt, Germany) was used to measure cell viability after 48-96 h of treatments. […] Absorbance was measured at 570 nm using a microplate reader (Victor Nivo; Perkin Elmer, Hamburg, Germany). For these assays, the effects of vehicle or treatments were expressed as the % of change of the non-treated cells. […]

[3] = system: SKMel-103, A549, Huh7, SH-SY5Y cells; test: MTT cell viability in different models of cellular senescence and cancer cell lines; settings: senescent cancerous cell lines, senescence by doxorubicin, bleomycin or palbociclib
Method: as §1
Next, it was evaluated the senolytic capacity of Tvs1 in different models of cellular senescence and cancer cell lines. For that purpose, chemotherapy known to induce cellular senescence by genotoxic damage (doxorubicin and bleomycin) or by inhibiting cyclin-dependent kinases (palbociclib) was used. Cellular models of melanoma, lung adenocarcinoma (A549), hepatoma (Huh7) and neuroblastoma (SH-SY5Y) were used. Tvs1G consistently produced a senolytic effect in all the cancerous cell lines tested independently of the stimulus for achieving cellular senescence (Figure 2, Figures 4F, 4G, 4H). […]

Compound | EC50 ([1]; Homo sapiens, SK-MEL-103, palbociclib-induced senescent SKMel-103 cells, 48h treatment, read-out: EC50 (senolytic potency)) [nM] | SI ([1]; senolytic index, ratio of the IC50 in proliferative and senescent cells) | senolysis / viability [2] | senolytic effect [3] | senolytic effect ([1]; tested senescent melanoma cells)
CC1(C)CCC(c2ccc(Cl)cc2)=C(CN2CCN(c3ccc(C(=O)NS(=O)(=O)c4ccc(N[C@H](CCN5CCOCC5)CSc5ccccc5)c(S(=O)(=O)C(F)(F)F)c4)cc3)CC2)C1 [navitoclax] | 400 | 22 | failed | – | –
O=c1c(O)c(-c2ccc(O)c(O)c2)oc2cc(O)cc(O)c12 [Q, quercetin] | – | – | – | failed | –
C[C@H]1O[C@@H](O[C@H]2[C@@H](O)C[C@H](O[C@H]3[C@@H](O)C[C@H](O[C@H]4CC[C@@]5(C)[C@H](CC[C@@H]6[C@@H]5C[C@@H](O)[C@]5(C)[C@@H](C7=CC(=O)OC7)CC[C@]65O)C4)O[C@@H]3C)O[C@@H]2C)C[C@H](O)[C@@H]1O [digoxin] | – | – | failed | – | not effective
O=c1c(O)c(-c2ccc(O)c(O)c2)oc2cc(O)ccc12 [F, fisetin] | – | – | – | failed | –
